Measurements: patent publication US20100184815A1 (priority 2008, published 2010)

How the values were obtained:
Gal-4 hPPARα = molecular target: T1, Gal-4 hPPARα (Homo sapiens, UniProt Q07869); assay: Gal4-hPPARα transient transfection reporter assay in Cos cells; assay type: cell-based; conditions: luciferase reporter, 24 hours with compound, scale 1-5, read-out: Gal-4 hPPAR α EC50 (scaled number)
T1 construct: Plasmids pGal4-hPPARα, pGal4-hPPARγ, pGal4-hPPARδ and pG5-TK-pGL3 were constructed as previously described by Staels, Bart, et al., Nature 1998 Jun; 25
T1 sequence (Q07869 200-468 limits assumed): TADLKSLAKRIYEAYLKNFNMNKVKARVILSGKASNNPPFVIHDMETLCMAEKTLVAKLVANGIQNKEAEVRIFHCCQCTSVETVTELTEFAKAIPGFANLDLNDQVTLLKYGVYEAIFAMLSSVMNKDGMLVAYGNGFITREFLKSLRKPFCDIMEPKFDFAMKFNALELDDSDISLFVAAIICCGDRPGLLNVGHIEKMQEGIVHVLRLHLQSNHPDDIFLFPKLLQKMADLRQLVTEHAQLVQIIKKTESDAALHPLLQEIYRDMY
Procedure, shortened: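 Cos cells transiently co-transfected with Gal4-hPPAR expression plasmid, pG5-TK-pGL3 luciferase reporter and β-galactosidase control, then treated 24 h with increasing compound concentrations in DMEM containing 0.2% FCS. Luciferase normalised to β-galactosidase; EC50 from curve fit, at least three experiments.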

[1] = Metabolism studies using human liver microsomal preparations; assay type: in vitro ADME; conditions: for HLMs Predominant Enzyme: comparison of half life with and without NADPH: Esterase, CYP or Mixed; for HLMs t1/2 (min) / half-life: pooled human liver microsomes, with NADPH (CYP system active), 37° C.; for half-life: pH 7.4, read-out: HLMs t1/2
Procedure: Compounds were incubated in pooled human liver microsomes (HLMs) in the presence or absence of an NADPH-generating system. NADPH is required for the activity of cytochrome P450 (CYP) and other oxidative enzymes present in HLMs, but not for esterase activity. An additional incubation was carried out in the absence of HLM to assess compound stability. The disappearance of parent and the appearance of the corresponding acid metabolite were monitored over the time course of the incubations using LC-MS/MS.
A stock solution (20 mM) of each proprietary compound in DMSO was prepared and store at −20° C. until needed. A working stock solution (0.2 mM) was prepared for each proprietary compound by adding an aliquot of the stock solution (10 μL) to acetonitrile (990 μL).
An aliquot of the HLM solution was removed from the −80° C. freezer and placed on ice. Tris Buffer (50 mM, pH 7.4) containing MgCl2 (hexahydrate, 5 mM) was pre-incubated in a 37° C. water bath. A set of Eppendorf microfuge tubes (1.5 mL) was appropriately labeled. To each tube was added Tris buffer with or without the NADPH generating system. An aliquot of pooled HLMs was added to all the incubations except those that were the buffer control.
Tubes were preincubated for 5 min in a shaking incubator bath (37° C., 900 rpm) and the reaction was initiated by adding an aliquot of the proprietary working solution (5 μL). The additions were timed carefully in order to coordinate the sample collections below. A small aliquot (50 μL) was removed at […] and delivered to the respective tubes containing dextrorphan (100 μL of 0.5 μg/mL solution) in dissolved in methanol or acetonitrile. The samples were centrifuged at 14000 g for 15 minutes at 4° C. The supernatant was transferred to clean labeled HPLC injection vials and stored at −80° C. until analyzed. An aliquot of the supernatant […] was added to water (75 μL), mixed and injected onto the LC-MS/MS system for analysis.
“HLM t1/2” represents the observed half life of the compound under conditions that included NADPH, i.e., the CYP system was active. Comparison to the half life of the test article under (−)NADPH conditions, the enzyme predominant ly responsible for the metabolism of the test article. […] Where roughly equal metabolism is seen by each enzyme system, “mixed” is noted in the “Predominant enzyme” column.

What does the source list for CCCCCCn1c(COC(=O)c2ccc(OC(C)(C)C(=O)O)cc2)nn(Cc2ccc(C)cc2)c1=O [Compound 151, 2-(4-(((4-hexyl-1-(4-methylbenzyl)-5-oxo-4,5-dihydro-1H-1,2,4-triazol-3-yl)methoxy)carbonyl)phenoxy)-2-methylpropanoic acid]?
EC50 (Gal-4 hPPARα): 1 to 50 nM; HLMs Predominant Enzyme [1]: Stable; HLMs t1/2 (min) [1]: Stable

Which results are given for Cc1ccc(Cn2cc(COC(=O)c3ccc(SC(C)(C)C(=O)O)cc3)cn2)cc1 [Compound 3, 2-methyl-2-(4-(((1-(4-methylbenzyl)-1H-pyrazol-4-yl)methoxy)carbonyl)phenylthio)propanoic acid]?
EC50 (Gal-4 hPPARα): 51 to 200 nM; HLMs t1/2 (min) [1]: Stable

Which EC50 (Gal-4 hPPARα) does the source give for CCCn1c(COC(=O)c2ccc(OC(C)(C)C(=O)O)cc2)nn(Cc2ccc(C(C)(C)C)cc2)c1=O [Compound 150, 2-(4-(((1-(4-tert-butylbenzyl)-5-oxo-4-propyl-4,5-dihydro-1H-1,2,4-triazol-3-yl)methoxy)carbonyl)phenoxy)-2-methylpropanoic acid] here?
The EC50 was 1 to 50 nM.

And the “HLMs t1/2 (min)” value [1]?
The value was “Stable”.

For Cc1ccc(Cn2cc([C@@H](C)OC(=O)c3ccc(SC(C)(C)C(=O)O)cc3)nn2)cc1 [Compound 87, (R)-2-methyl-2-(4-((1-(1-(4-methylbenzyl)-1H-1,2,3-triazol-4-yl)ethoxy)carbonyl)phenylthio)propanoic acid], which EC50 (Gal-4 hPPARα) is on record?
The EC50 was 1 to 50 nM.

And the “HLMs Predominant Enzyme” value [1]?
The value was “Esterase”.

What about the half-life [1] of the same molecule?
The half-life was 2.13 h.

For CC(C)(Sc1ccc(C(=O)OCc2cn(Cc3ccc(C(C)(C)C)cc3)nn2)cc1)C(=O)O [Compound 69, 2-(4-(((1-(4-tert-butylbenzyl)-1H-1,2,3-triazol-4-yl)methoxy)carbonyl)phenylthio)-2-methylpropanoic acid], which EC50 (Gal-4 hPPARα) is on record?
The EC50 was 1 to 50 nM.

What about the “HLMs Predominant Enzyme” value [1] of the same molecule?
Its value is “Esterase”.

What about the half-life [1] of the same molecule?
The half-life was 1 h.

Which results are given for CCCn1c(COC(=O)c2ccc(SC(C)(C)C(=O)O)cc2)nn(Cc2ccc(C(C)(C)C)cc2)c1=O [Compound 159, 2-(4-(((1-(4-tert-butylbenzyl)-5-oxo-4-propyl-4,5-dihydro-1H-1,2,4-triazol-3-yl)methoxy)carbonyl)phenylthio)-2-methylpropanoic acid]?
EC50 (Gal-4 hPPARα): 1 to 50 nM; HLMs t1/2 (min) [1]: Stable

Which results are given for CCCCCCCCn1c(COC(=O)c2ccc(OC(C)(C)C(=O)O)cc2)nn(Cc2ccc(C)cc2)c1=O [Compound 152, 2-methyl-2-(4-(((1-(4-methylbenzyl)-4-octyl-5-oxo-4,5-dihydro-1H-1,2,4-triazol-3-yl)methoxy)carbonyl)phenoxy)propanoic acid]?
EC50 (Gal-4 hPPARα): 51 to 200 nM; HLMs Predominant Enzyme [1]: Esterase; half-life [1]: 3 h

Which EC50 (Gal-4 hPPARα) does the source give for CCCCCCCn1c(COC(=O)c2ccc(OC(C)(C)C(=O)O)cc2)nn(Cc2ccc(C(C)(C)C)cc2)c1=O [Compound 190, 2-(4-(((1-(4-tert-butylbenzyl)-4-heptyl-5-oxo-4,5-dihydro-1H-1,2,4-triazol-3-yl)methoxy)carbonyl)phenoxy)-2-methylpropanoic acid] here?
Its EC50 is 1 to 50 nM.

What about the “HLMs Predominant Enzyme” value [1] of the same molecule?
The value was “CYP”.

And the half-life [1]?
The half-life was 0.6 h.

With CC(C)(Sc1ccc(C(=O)OCCc2cn(Cc3ccc(C(F)(F)F)cc3)nn2)cc1)C(=O)O [Compound 91, 2-methyl-2-(4-((2-(1-(4-(trifluoromethyl)benzyl)-1H-1,2,3-triazol-4-yl)ethoxy)carbonyl)phenylthio)propanoic acid] as the molecule, how does the EC50 (Gal-4 hPPARα) read?
The EC50 was 201 to 999 nM.

And the “HLMs Predominant Enzyme” value [1]?
Its value is “Mixed”.

And the half-life [1]?
Its half-life is 0.917 h.

For CCCCCCn1c(COC(=O)c2ccc(OC(C)(C)C(=O)O)cc2)nn(Cc2ccc(C(C)(C)C)cc2)c1=O [Compound 188, 2-(4-(((1-(4-tert-butylbenzyl)-4-hexyl-5-oxo-4,5-dihydro-1H-1,2,4-triazol-3-yl)methoxy)carbonyl)phenoxy)-2-methylpropanoic acid], which EC50 (Gal-4 hPPARα) is on record?
The EC50 was 1 to 50 nM.

And the “HLMs Predominant Enzyme” value [1]?
The value was “CYP”.

And the half-life [1]?
The half-life was > 1.5 h.

For CC(C)(Sc1ccc(C(=O)OCc2cn(Cc3ccc(C(F)(F)F)cc3)nn2)cc1)C(=O)O [Compound 67, 2-methyl-2-(4-(((1-(4-(trifluoromethyl)benzyl)-1H-1,2,3-triazol-4-yl)methoxy)carbonyl)phenylthio)propanoic acid], which EC50 (Gal-4 hPPARα) is on record?
The EC50 was 1 to 50 nM.

What about the “HLMs t1/2 (min)” value [1] of the same molecule?
Its value is “Stable”.
